The record followed here is patent US11358972B2, “Pentacyclic heterocycles” (Eisai R&D Management Co., Ltd., priority 2019, dated 2022).

Structures are written as SMILES.

Experiment [1] has as its system Rat primary septal neuron culture. Kind of experiment: Measurement of acetylcholine (ACh) release in the rat primary septal neuron culture system. The experiment is classed as cell-based. The settings on record: 24 h, rat primary septal neurons, with NGF, ACh release measured by HPLC one day after compound addition, read-out: Concentration (μM) showing a 20% or more increase from the amount of ACh in the control group. An excerpt: Measurement of Acetylcholine (ACh) Release in the Rat Primary Septal Neuron Culture System
(1) Rat Primary Septal Neuron Culture
The septal area was isolated from Sprague-Dawley (SD) rats (Charles River Laboratories Japan, Inc.) at a fetal age of 18 days, and cultured. Specifically, fetuses were removed from pregnant rats under isoflurane anesthesia. The brain was extracted from each fetus, and immersed in ice-cooled L-15 medium (11415-064, Thermo Fisher Scientific). The septal area was dissected from the extracted brain under a stereoscopic microscope. The dissected septal area was treated in 0.25% trypsin (15050-065, Thermo Fisher Scientific) and 0.01% DNase (D5025-150KU, Sigma) at 37° C. for 30 minutes, thereby dispersing the cells. In this case, the enzyme reaction was terminated by adding inactivated horse serum (26050-088, Thermo Fisher Scientific). The enzyme-treated solution was centrifuged at 1000 rpm for 3 minutes, and the supernatant was removed. A medium in an amount of 10 mL was added to the obtained cell mass. The medium used was Dulbecco's Modified Eagle's Medium (044-29765, WAKO) supplemented with N2 supplement (17502-048, Thermo Fisher Scientific), 1 mM sodium pyruvate (11360-070, Thermo Fisher Scientific), and Penicillin-Streptomycin (15140-1221, Thermo Fisher Scientific). The cells of the cell mass to which the medium was added were redispersed by gentle pipetting, and then centrifuged again at 1000 rpm for 3 minutes, and the supernatant was removed. The medium in an amount of 10 mL was added to the obtained cell mass, and the cell dispersion was filtered through a 40-μm nylon mesh (Cell Strainer) to remove the cell mass, thereby obtaining a neuronal cell suspension. The neuronal cell suspension was diluted with the medium, and 10% inactivated bovine serum (26140-079, Thermo Fisher Scientific) and 10% inactivated horse serum were added. Thereafter, 100 μL/well of the suspension was seeded in a 96-well plate (354461, CORNING) pre-coated with poly-D-lysine so that the initial culture density was 1.2×10^5 cells/cm^2. After the seeded cells were cultured under 5% CO2-95% air in a 37° C. incubator for 2 days, the entire medium was replaced with 120 μL of fresh medium, and the cells were subsequently cultured for 5 days.
On the 7th day of culture, compounds were added in the following manner. A solution of the test compound in DMSO was diluted with the medium so that the concentration was 10 times higher than the final concentration. Nerve Growth Factor (450-01, PEPRO TECH, INC.) was prepared at […]. These two solutions were added each in an amount of 15 μL/well, and the mixture was mixed well. The final DMSO concentration was 0.1% or less. Moreover, only DMSO and NGF were added to the control group.
(3) ACh Release Measurement
One day after the compound addition, an amount of ACh release was measured by HPLC in the following manner. A warmed buffer was added at 100 μL/well to the well after the medium was eliminated, and the buffer was immediately removed. Thereafter, a buffer to which 10 μm choline, 10 μm physostigmine, and 6 mM KCl were added was added at 120 μL/well. The buffer was prepared by adding 125 mM NaCl, 25 mM 4-(2-hydroxyethyl)-1-piperazineethanesulfonic acid, 1.2 mM KH2PO4, 1.2 mM MgSO4, 2.2 mM CaCl2 (2H2O), and 10 mM glucose to sterilized water, and the final pH of the solution was set to 7.4. After the 96-well plate to which the buffer was added was incubated under 5% CO2-95% air in a 37° C. incubator for 40 minutes, 80 μL of buffer was collected. An internal standard solution IPHC (5×10^−7 M) was added in an amount of 6 μL to the collected buffer, and the buffer was transferred to a tube for HPLC measurement and subjected to HPLC measurement. […]

The test system of experiment [2] is Choline Acetyltransferase (ChAT) mRNA. The experiment in a line: Measurement of choline acetyltransferase (ChAT) mRNA expression levels in the rat septal area. The class given is in vivo. The settings on record: po, SD male rats, medial septum, 24 hours after administration, read-out: Amount (%) increased from the amount of ChAT mRNA expression levels in the vehicle administration group; for change in vivo at 1 mg/kg: 1 mg/kg orally. On the procedure: Measurement of Choline Acetyltransferase (ChAT) mRNA Expression Levels in the Rat Septal Area (1) Compound Administration
In this study, Sprague-Dawley male rats (Charles River Laboratories Japan, Inc.) with a body weight of about 250 to 350 g were used. The test compound was dissolved in 0.01 mol/L hydrochloric acid, and orally administered.
At 24 hours after the administration of the compound, the whole brain tissue was collected under pentobarbital anesthesia. The medial septum was isolated from whole brain on ice and frozen with liquid nitrogen, and then stored at −80° C.
(3) Measurement of ChAT mRNA Expression Levels
For RNA purification, RNeasy™ Plus Mini Kit (#74136: QIAGEN) was used in this study. RNA purification was performed by the method described in the kit After RNA purification, the total RNA concentration was measured by using QIAxpert Instrument (QIAGEN). cDNA was synthesized using SuperScript™ VILO™ cDNA Synthesis Kit (#11754: Thermo Fisher Scientific). The synthesis of cDNA was performed by the method described in the kit. The synthesized cDNA was diluted 4 times with RNase free water, and the diluted cDNA solution was used as a sample. Taqman™ Universal PCR Master Mix (#4304437: Thermo Fisher Scientific), Taqman™ Gene Expression Assays, INVENTORIED (#4331182: Thermo Fisher Scientific), RNase free water, and the cDNA solution were mixed in amounts of 10 μL, 1 μL, 4 μL, and 5 μL, respectively, and the resulting mixture was used as a measurement sample solution. Quantitative polymerase chain reaction (qPCR) was conducted using ABI PRISM™ 7900HT (Thermo Fisher Scientific) by a fluorescence probe method. Analysis was performed by SDS 2.4 (Thermo Fisher Scientific). The results were calculated by the percentage of the amount of ChAT mRNA expression levels in the compound administration group increased from the amount of ChAT mRNA expression levels in the vehicle administration group.

As for `CN1CCc2sc3c(=O)n4c(nc3c2C1)CN(C)C(=O)[C@@H]1CCC[C@H]14` [Example 14, (3aR,14aR)-5,9-dimethyl-2,3,3a,5,6,8,9,10,11,14a-decahydro-1H-cyclopenta[f]pyrido[3″,4″:4′,5′]thieno[3′,2′:4,5]pyrimido[1,2-a][1,4]diazepine-4,13-dione], the minimal effective concentration in experiment [1] turned out to be 0.03 µM. In addition, in experiment [2], the change in vivo at 1 mg/kg is 63.6%.

For `CN1C[C@H]2C(=O)N(C)Cc3nc4sc5c(c4c(=O)n3[C@H]2C1)CC[C@@H](F)C5` [Example 15, (3aR,10R,14aR)-10-fluoro-2,5-dimethyl-2,3,3a,5,6,9,10,11,12,14a-decahydro-1H-benzo[4′,5′]thieno[2′,3′:4,5]pyrimido[1,2-a]pyrrolo[3,4-f][1,4]diazepine-4,13-dione], the minimal effective concentration in experiment [1] was found to be 0.3 µM. In addition, the change in vivo at 1 mg/kg in experiment [2] worked out at 49%.

Take `COCCN1CCc2c(sc3nc4n(c(=O)c23)[C@H]2CCC[C@@H]2C(=O)N(C)C4)C1` [Example 16, (3aS,4aS)-10-(2-methoxyethyl)-5-methyl-2,3,3a,5,6,9,10,11,12,14a-decahydro-1H-cyclopenta[f]pyrido[4″,3″:4′,5′]thieno[2′,3′:4,5]pyrimido[1,2-a][1,4]diazepine-4,13-dione]: the minimal effective concentration in experiment [1] is 0.03 µM. Besides, the change in vivo at 3 mg/kg in experiment [2] (3 mg/kg orally) came out at 42.5%.
